Patent US10709704B2, “Treating neural disease with tyrosine kinase inhibitors” (GEORGETOWN UNIVERSITY, priority 2012, dated 2020)

How the values were obtained:
[1] = test system: lentiviral Aβ1-42-injected parkin−/− mice; test: Morris water maze, lentiviral Aβ1-42 parkin−/− mice; type: in vivo, mouse
Experimental: (§1) All animals were pre-trained (trials) to swim for 90 seconds in a water maze containing a platform submerged in water (invisible) for 4 consecutive days once a day. The pretraining trials “teach” the swimming animals that to “escape”, they must find the hidden platform, and stay on it. The water maze “test” was performed on day 5, (40), when the platform was removed and mice have to swim and find it, thus assessing acquisition and retention. All parameters, including distance travelled to reach platform, speed to get to the platform, latency or time spent on platform, and platform entry were digitally recorded on a computer and analyzed by a blind investigator.
(§2) The Morris water maze test was performed after 4 days of training trials in which the platform was placed in the SE corner and mice were initially placed in the NW corner of the pool.

Tg-APP mice = test: Morris water maze, Tg-APP mice; type: in vivo, mouse
Experimental: as §1
These experiments were repeated in 1 year old Tg-APP mice and age-matched control (C57BL/6).

[2] = test system: autophagic vacuoles and lysosomes; test: Subcellular fractionation (AV-10, AV-20, lysosome) and ELISA, Tg-APP mice; type: in vivo, mouse
Experimental: Histograms show Aβ1-42 in subcellular fractions, including autophagic vacuole-10 (AV-10; phagophores+autophagosomes), AV-20 (autophagosomes) and lysosomes. […] Brain tissues were fractionated to isolate AVs and human specific ELISA was performed to determine protein contents. N=5 animals per treatment.
(§3) 0.5 g of Frozen human or animal brains were homogenized at low speed (Cole-Palmer homogenizer, LabGen 7, 115 Vac) in 1×STEN buffer and centrifuged at 1,000 g for 10 minutes to isolate the supernatant from the pellet. The pellet was re-suspended in 1×STEN buffer and centrifuged once to increase the recovery of lysosomes. The pooled supernatants were then centrifuged at 100,000 rpm for 1 hour at 4° C. to extract the pellet containing autophagic vacuoles (AVs) and lysosomes. The pellet was then re-suspended in 10 ml (0.33 g/ml) 50% Metrizamide and 10 ml in cellulose nitrate tubes. A discontinuous Metrizamide gradient was constructed in layers from bottom to top as follows: 6 ml of pellet suspension, 10 ml of 26%; 5 ml of 24%; 5 ml of 20%; and 5 ml of 10% Metrizamide (Marzella et al., 1982). After centrifugation at 10,000 rpm for 1 hour at 4° C., the fraction floating on the 10% layer (Lysosome) and the fractions banding at the 24%/20% (AV 20) and the 20%/10% (AV10) Metrizamide inter-phases were collected by a syringe and examined.
as §3, with “Animal” for “0.5 g of Frozen human or animal”, “100.000” for “100,000”, “[…]” for “4°”, “Metrizamide.” for “Metrizamide (Marzella et al., 1982).”, “100,000” for “10,000”, “40 C,” for “4° C.,”

caspase-3 activation = test system: caspase-3 activation
Experimental: Lentiviral constructs encoding LacZ, or Aβ1-42 were stereotaxically injected 1×106 multiplicity of infection (m.o.i) bilaterally into the CA1 hippocampus of 1 year old C57BL/6 or parkin−/−. A Total of […] lentiviral stocks were delivered at a rate of 0.2 μl/min and. All procedures were approved by the Georgetown University Animal Care and Use Committee (GUACUC).
Aβ and p-Tau enzyme-linked immunosorbent assay (ELISA) using specific p-Tau, Aβ1-40 and Aβ1-42 ELISA and caspase-3 activity were performed according to manufacturer's protocol.

[3] = test system: molecular markers of autophagy; test: Western blot of autophagy markers, A53T mice; type: in vivo, mouse; conditions: daily IP Nilotinib 3 weeks
Source text: Rabbit polyclonal (1:1000) tubulin (Thermo Scientific) was used.

[4] = test system: human Tau, Aβ1-42, α-synuclein; test: M17 cells transfected with Tau cDNA: Tau, Aβ1-42, α-synuclein; type: cell-based
Experimental: Cell culture experiments are referenced below and explained in Burns et al. (Human Molecular Genetics. 2009) and Rebeck et al. (J. Biol. Chem. 2010, 285:7440-7446). Additional details are provided in the brief description of the figures.
In other experiments, M17 cells transfected with Tau cDNA were treated with Nilobinib and Tubacin (an HDAC6 inhibitor).

[5] = test system: lentiviral Aβ1-42-injected wild type mice; test: Morris water maze, lentiviral Aβ1-42 wild type mice; type: in vivo, mouse; conditions: Nilotinib
Experimental: as §1, §2

[6] = test system: Aβ1-42 plaques and intracellular Aβ1-42; test: Plaque and intracellular Aβ1-42 staining, lentiviral Aβ1-42 wild type mice; type: in vivo, mouse
Experimental: Immunohistochemistry was performed on 20 micron-thick 4% paraformaldehyde (PFA) fixed cortical brain sections. Aβ1-42 was probed (1:200) with rabbit polyclonal specific anti-Aβ1-42 antibody (Zymed) that recognizes a.a.1-42, and (1:200) mouse monoclonal antibody (4G8) that recognizes amino acid 17-24 (Covance) and counterstained with DAPI. Parkin was immunoprobed (1:200) with mouse anti-parkin (PRK8) antibody that recognizes amino acid 399-465 (Signet Labs, Dedham, Mass.) and rabbit polyclonal (1:200) anti-parkin (AB5112) antibody that recognizes amino acid 305-622 (Millipore) and counterstained with DAPI. Mouse monoclonal (6E10) antibody (1:100) with DAB were used (Covance) and thioflavin-S was performed according to manufacturer's instructions (Sigma).
Stereological methods were applied by a blinded investigator using unbiased stereology analysis (Stereologer, Systems Planning and Analysis, Chester, Md.) as described in (20,36).

[7] = IP 10 mg/kg Nilotinib or 5 mg/Kg Bosutinib daily 3 weeks

Cc1cn(-c2cc(NC(=O)c3ccc(C)c(Nc4nccc(-c5cccnc5)n4)c3)cc(C(F)(F)F)c2)cn1 [Nilotinib]
decrease in distance travelled compared to control and wild type ([1]; Aβ1-42 parkin−/− mice with Nilotinib (first of '±Nilotinib ... respectively')): 80%
time in NW quadrant ([1]; Aβ1-42 parkin−/− mice with and without Nilotinib): remained significantly more in the NW quadrant
time spent in SE (Tg-APP mice; 1 year old Tg-APP mice, 10 mg/kg daily for 3 weeks): reversed time spent in SE back to control level
distance traveled above control levels (Tg-APP mice; Nilotinib treated Tg-APP mice): 30%
entries into SE (platform entry) higher than control (Tg-APP mice; Tg-APP+Nilotinib): 30%
autophagic clearance of Aβ1-40 (deposition in AV-20 and lysosome) [2, 7]: enhances autophagic clearance
autophagic clearance of Aβ1-42 (deposition in AV-20 and lysosome) [2, 7]: enhances autophagic clearance
autophagic clearance of p-Tau ser 396 (deposition in AV-20 and lysosome) [2, 7]: enhances autophagic clearance
autophagic clearance of parkin (deposition in AV-20 and lysosome) ([2]; IP 10 mg/kg Nilotinib or 5 mg/kg Bosutinib daily 3 weeks): enhances autophagic clearance
increase in caspase-3 activation (caspase-3 activation; lentiviral Aβ1-42 parkin−/− mice with Nilotinib (without 180%)): 165%
caspase-3 activation above control (caspase-3 activation; lentiviral Aβ1-42 wild type mice, 10 mg/kg daily 3 weeks (DMSO 165%)): 45 % above control
LC3-II level [3]: completely disappeared
increase in Atg-5 compared to DMSO [3]: 29%
increase in beclin-1 compared to DMSO [3]: 69%
human Aβ1-42 [4]: decrease
human Tau [4]: decrease
α-synuclein [4]: decrease
time spent in NW quadrant ([5]; Aβ1-42-injected wild type mice): back to the level observed in control mice
improved time spent in SE compared to DMSO ([5]; Aβ1-42 wild type mice): 61%
improved time spent in SE compared to control ([5]; Aβ1-42 wild type mice): 26%
number of entries into SE (platform entry) ([5]; Aβ1-42 wild type mice): reversed the number of entries back to control
plaque size ([6]; Aβ1-42 wild type mice + Nilotinib (DMSO around 48 μm)): 5 μm
plaque formation ([6]; Aβ1-42 wild type mice, Nilotinib daily for 3 weeks): eliminates plaque formation
Aβ1-42 positive cells (stereological counting) ([6]; Aβ1-42 wild type mice, Nilotinib treated): 5200 cells
intracellular Aβ1-42 accumulation (cortex) ([6]; lentiviral Aβ1-42 injected mice, Nilotinib): eliminated Aβ1-42 accumulation
